Results as given in patent US20230330112A1, “COMPOSITION AND TREATMENT FOR CANCER WITH MUTATIONS” (BRIDGE BIOTHERAPEUTICS, INC., priority 2022, published 2023).

Key:
[1] = tested on: Ba/F3 EGFR 19Del/C797S xenograft; assay: Ba/F3 EGFR 19Del/C797S xenograft study; type: in vivo, mouse; conditions: even at 25 mg/kg
Description: (§1) For Ba/F3 EGFR 19Del/C797S and EGFR 19Del/T790M/C797S xenografts models, each mouse was inoculated subcutaneously at the right flank with cells (0.5×10^6) in 0.1 mL of PBS supplemented with BD Matrigel (1:1) for tumor development. The animals were randomized, and treatment was started when the average tumor volume reached 150-180 mm^3 for the efficacy study.
(§2) Tumor volumes were measured twice weekly in two dimensions using a caliper, and the volume was expressed in mm^3 using the formula: volume=0.5 a×b^2 where a and b are the long and short diameters of the tumor, respectively. The tumor sizes were then used for the calculations of T/C (treatment/control) values. The tumor volume was used for calculation of tumor growth index (TGI) of each group according to the following formula: TGI (%)=[1-(Tti-Tt0)/(Vci-Vc0)]×100. The bodyweight of mice was measured daily for the dosing phase, and the relative change of bodyweight (RCBW) of each mouse according to the following formula: […]

[2] = tested on: Ba/F3 EGFR 19Del/T790M/C797S xenografts; assay: Ba/F3 EGFR 19Del/T790M/C797S xenograft study; type: in vivo, mouse; conditions: even at 25 mg/kg
Description: as §1, §2

For C=CC(=O)Nc1cc(Nc2nccc(-c3cn(C)c4ccccc34)n2)c(OC)cc1N(C)CCN(C)C [osimertinib, reference compound], the tumor growth [1] was “did not block the tumor growth” and the tumor growth [2] was “did not block the tumor growth”.
